Data taken from the supplement of paper PMC10733146.

What was measured:
Assay in all cases: viability relative to DMSO control (fraction); higher = less drug effect (more viable cells)
Settings in all cases: 48 h
[1] = system: primary DLBCL patient cells (S082)
How it was run: (§1)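 In 384-well plates with compounds pre-plated at five concentrations (one well per concentration), primary mononuclear tumour cells were plated at 4 × 10^4 cells per well. The cells came from blood or bone marrow by Ficoll isolation or from processed lymph node, and were used fresh or cryopreserved. Culture ran for 48 h at 37 °C and 5% CO2 in RPMI-1640 containing penicillin/streptomycin, L-glutamine and human serum. Viability was read as CellTiter-Glo luminescence, normalised to the median of 16 inner DMSO wells.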

[2] = system: primary AML patient cells (S017)
How it was run: as §1

[3] = system: primary AML patient cells (S091)
How it was run: as §1

[4] = system: primary AML patient cells (S060)
How it was run: as §1

[5] = system: primary T-PLL patient cells (S008)
How it was run: as §1

[6] = system: primary AML patient cells (S009)
How it was run: as §1

[7] = system: primary AML patient cells (S072)
How it was run: as §1

[8] = system: primary AML patient cells (S002)
How it was run: as §1

[9] = system: primary B-PLL patient cells (S016)
How it was run: as §1

[10] = system: primary AML patient cells (S089)
How it was run: as §1

[11] = system: primary MCL patient cells (S068)
How it was run: as §1

[12] = system: primary MCL patient cells (S053)
How it was run: as §1

[13] = system: primary AML patient cells (S081)
How it was run: as §1

[14] = system: primary AML patient cells (S071)
How it was run: as §1

[15] = system: primary AML patient cells (S025)
How it was run: as §1

[16] = system: primary AML patient cells (S021)
How it was run: as §1

[17] = system: primary AML patient cells (S037)
How it was run: as §1

[18] = system: primary CLL patient cells (S043)
How it was run: as §1

[19] = system: primary BL patient cells (S005)
How it was run: as §1

With `CC#CC(=O)N1CCC[C@H]1c1nc(-c2ccc(C(=O)Nc3ccccn3)cc2)c2c(N)nccn12` [Acalabrutinib (ACP-196)] the viability ([1]; 0.008 µM) was 0.804, the viability ([1]; 0.04 µM) was 0.675 and the viability ([1]; 0.2 µM) was 0.559. The viability ([1]; 1 µM) was 0.462, the viability ([1]; 5 µM) was 0.447 and the viability ([2]; 0.008 µM) was 1.32. For the same molecule, the viability ([2]; 0.04 µM) was 1.1, the viability ([2]; 0.2 µM) was 1.15 and the viability ([2]; 1 µM) was 1.36. The viability ([2]; 5 µM) was 0.997, the viability ([3]; 0.008 µM) was 0.945 and the viability ([3]; 0.04 µM) was 1.06. For the same molecule, the viability ([3]; 0.2 µM) was 0.979, the viability ([3]; 1 µM) was 1.01 and the viability ([3]; 5 µM) was 1.07. For the same molecule, the viability ([4]; 0.008 µM) was 1.08, the viability ([4]; 0.04 µM) was 1.06 and the viability ([4]; 0.2 µM) was 1.04. For the same molecule, the viability ([4]; 1 µM) was 1.05, the viability ([4]; 5 µM) was 1.05 and the viability ([5]; 0.008 µM) was 1.11. For the same molecule, the viability ([5]; 0.04 µM) was 1.01, the viability ([5]; 0.2 µM) was 1.08 and the viability ([5]; 1 µM) was 0.989. The viability ([5]; 5 µM) was 1.13, the viability ([6]; 0.008 µM) was 1.19 and the viability ([6]; 0.04 µM) was 1.11. For the same molecule, the viability ([6]; 0.2 µM) was 1.16, the viability ([6]; 1 µM) was 1.09 and the viability ([6]; 5 µM) was 1.12. For the same molecule, the viability ([7]; 0.008 µM) was 0.995, the viability ([7]; 0.04 µM) was 0.971 and the viability ([7]; 0.2 µM) was 0.989. It also gave a viability ([7]; 1 µM) of 0.941, a viability ([7]; 5 µM) of 0.971 and a viability ([8]; 0.008 µM) of 0.98. The viability ([8]; 0.04 µM) was 1.15, the viability ([8]; 0.2 µM) was 1.03 and the viability ([8]; 1 µM) was 0.952. The viability ([8]; 5 µM) was 1.04, the viability ([9]; 0.008 µM) was 0.748 and the viability ([9]; 0.04 µM) was 0.627. For the same molecule, the viability ([9]; 0.2 µM) was 0.601, the viability ([9]; 1 µM) was 0.549 and the viability ([9]; 5 µM) was 0.6. The viability ([10]; 0.008 µM) was 0.975, the viability ([10]; 0.04 µM) was 0.996 and the viability ([10]; 0.2 µM) was 0.91. For the same molecule, the viability ([10]; 1 µM) was 0.679, the viability ([10]; 5 µM) was 0.629 and the viability ([11]; 0.008 µM) was 0.878. The viability ([11]; 0.04 µM) was 0.805, the viability ([11]; 0.2 µM) was 0.788 and the viability ([11]; 1 µM) was 0.767. For the same molecule, the viability ([11]; 5 µM) was 0.785, the viability ([12]; 0.008 µM) was 0.711 and the viability ([12]; 0.04 µM) was 0.636. It also gave a viability ([12]; 0.2 µM) of 0.656, a viability ([12]; 1 µM) of 0.587 and a viability ([12]; 5 µM) of 0.66. For the same molecule, the viability ([13]; 0.008 µM) was 1.01, the viability ([13]; 0.04 µM) was 1.05 and the viability ([13]; 0.2 µM) was 0.985. It also gave a viability ([13]; 1 µM) of 1.02, a viability ([13]; 5 µM) of 1.02 and a viability ([14]; 0.008 µM) of 1.06. For the same molecule, the viability ([14]; 0.04 µM) was 1.02, the viability ([14]; 0.2 µM) was 1.01 and the viability ([14]; 1 µM) was 1.01. For the same molecule, the viability ([14]; 5 µM) was 0.994, the viability ([15]; 0.008 µM) was 1.06 and the viability ([15]; 0.04 µM) was 1.26. For the same molecule, the viability ([15]; 0.2 µM) was 1.04, the viability ([15]; 1 µM) was 1.05 and the viability ([15]; 5 µM) was 1.05. The viability ([16]; 0.008 µM) was 1.13, the viability ([16]; 0.04 µM) was 1.05 and the viability ([16]; 0.2 µM) was 1.13. The viability ([16]; 1 µM) was 1.1, the viability ([16]; 5 µM) was 1.03 and the viability ([17]; 0.008 µM) was 1.07. For the same molecule, the viability ([17]; 0.04 µM) was 1.62, the viability ([17]; 0.2 µM) was 1.07 and the viability ([17]; 1 µM) was 1.22. The viability ([17]; 5 µM) was 1.05, the viability ([18]; 0.008 µM) was 0.794 and the viability ([18]; 0.04 µM) was 0.768. For the same molecule, the viability ([18]; 0.2 µM) was 0.73, the viability ([18]; 1 µM) was 0.701 and the viability ([18]; 5 µM) was 0.72. For the same molecule, the viability ([19]; 0.008 µM) was 1.07, the viability ([19]; 0.04 µM) was 1.15 and the viability ([19]; 0.2 µM) was 1.05. It also gave a viability ([19]; 1 µM) of 1.17 and a viability ([19]; 5 µM) of 1.08.
